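Test compounds were applied to cells in 96-well plates for 48 hours at 5 doses. Here, GI50 denotes the concentration required for 50% inhibition of growth.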 Active and inactive are the calls of the source. Rule as the data show it: active = GI50 up to about 1.1 µM and inactive = higher.
Experiments:
Assay in all cases: inhibition of tumour cell growth, NCI panel, 48 h
NCI-H522 = tested on: NCI-H522
NCI-H226 = tested on: NCI-H226
SW-620 = tested on: SW-620
SK-MEL-5 = tested on: SK-MEL-5
SK-MEL-28 = tested on: SK-MEL-28
OVCAR-5 = tested on: OVCAR-5
SF-539 = tested on: SF-539
HCT-116 = tested on: HCT-116
M14 = tested on: M14
TK-10 = tested on: TK-10
ACHN = tested on: ACHN
MDA-N = tested on: MDA-N
IGROV-1 = tested on: IGROV-1
MDA-MB-231 = tested on: MDA-MB-231
UO-31 = tested on: UO-31
SN12C = tested on: SN12C
RXF 393 = tested on: RXF 393
UACC-62 = tested on: UACC-62
SR = tested on: SR
NCI-H460 = tested on: NCI-H460
SNB-75 = tested on: SNB-75
OVCAR-3 = tested on: OVCAR-3
Hs-578T = tested on: Hs-578T
OVCAR-4 = tested on: OVCAR-4
KM12 = tested on: KM12
RPMI-8226 = tested on: RPMI-8226
PC-3 = tested on: PC-3
Malme-3M = tested on: Malme-3M
DU-145 = tested on: DU-145
NCI/ADR-RES = tested on: NCI/ADR-RES
T47D = tested on: T47D
HL-60 = tested on: HL-60
LOX IMVI = tested on: LOX IMVI
786-0 = tested on: 786-0
OVCAR-8 = tested on: OVCAR-8
SF-268 = tested on: SF-268
HOP-62 = tested on: HOP-62
MOLT-4 = tested on: MOLT-4
MCF7 = tested on: MCF7
K562 = tested on: K562
NCI-H23 = tested on: NCI-H23
SK-OV-3 = tested on: SK-OV-3
HT-29 = tested on: HT-29
BT-549 = tested on: BT-549
HCT-15 = tested on: HCT-15
SNB-19 = tested on: SNB-19
U-251 = tested on: U-251
A498 = tested on: A498
EKVX = tested on: EKVX
UACC-257 = tested on: UACC-257
HOP-92 = tested on: HOP-92
SF-295 = tested on: SF-295
A549 = tested on: A549
SK-MEL-2 = tested on: SK-MEL-2
MDA-MB-435 = tested on: MDA-MB-435
CAKI-1 = tested on: CAKI-1
HCC 2998 = tested on: HCC 2998
CCRF-CEM = tested on: CCRF-CEM
COLO 205 = tested on: COLO 205

N/C(=N\c1ccc(Cl)cc1)NS(=O)(=O)c1cccc2nsnc12
GI50 (NCI-H522): 5.92 µM (inactive)
GI50 (NCI-H226): 68.7 µM (inactive)
GI50 (SW-620): 66.1 µM (inactive)
GI50 (SK-MEL-5): 16.1 µM (inactive)
GI50 (SK-MEL-28): 21 µM (inactive)
GI50 (OVCAR-5): 55.7 µM (inactive)
GI50 (SF-539): 37.3 µM (inactive)
GI50 (HCT-116): 31.8 µM (inactive)
GI50 (M14): 27.9 µM (inactive)
GI50 (TK-10): 22.3 µM (inactive)
GI50 (ACHN): 30.3 µM (inactive)
GI50 (MDA-N): 23.7 µM (inactive)
GI50 (IGROV-1): 23.7 µM (inactive)
GI50 (MDA-MB-231): 17.9 µM (inactive)
GI50 (UO-31): 28.4 µM (inactive)
GI50 (SN12C): 25.4 µM (inactive)
GI50 (RXF 393): > 100 µM (inactive)
GI50 (UACC-62): 17 µM (inactive)
GI50 (SR): 33 µM (inactive)
GI50 (NCI-H460): 19.1 µM (inactive)
GI50 (SNB-75): > 100 µM (inactive)
GI50 (OVCAR-3): 44.3 µM (inactive)
GI50 (Hs-578T): 20.9 µM (inactive)
GI50 (OVCAR-4): 15.2 µM (inactive)
GI50 (KM12): 34.3 µM (inactive)
GI50 (RPMI-8226): 33.8 µM (inactive)
GI50 (PC-3): 17.4 µM (inactive)
GI50 (Malme-3M): 18 µM (inactive)
GI50 (DU-145): 82.2 µM (inactive)
GI50 (NCI/ADR-RES): 31.3 µM (inactive)
GI50 (T47D): 39.4 µM (inactive)
GI50 (HL-60): 17.9 µM (inactive)
GI50 (LOX IMVI): 25.1 µM (inactive)
GI50 (786-0): 24.7 µM (inactive)
GI50 (OVCAR-8): 27.6 µM (inactive)
GI50 (SF-268): 26.8 µM (inactive)
GI50 (HOP-62): 94.2 µM (inactive)
GI50 (MOLT-4): 26.9 µM (inactive)
GI50 (MCF7): 36.2 µM (inactive)
GI50 (K562): 36.6 µM (inactive)
GI50 (NCI-H23): 34.7 µM (inactive)
GI50 (SK-OV-3): 74.8 µM (inactive)
GI50 (HT-29): 55.6 µM (inactive)
GI50 (BT-549): 25.2 µM (inactive)
GI50 (HCT-15): 30.3 µM
GI50 (SNB-19): 72.8 µM (inactive)
GI50 (U-251): 19.4 µM (inactive)
GI50 (A498): 15.6 µM (inactive)
GI50 (EKVX): 19.7 µM (inactive)
GI50 (UACC-257): 13.9 µM (inactive)
GI50 (HOP-92): 16.1 µM (inactive)
GI50 (SF-295): 45.5 µM (inactive)
GI50 (A549): 52.1 µM (inactive)
GI50 (SK-MEL-2): 11.9 µM (inactive)

CC[C@@H](CCCC[C@@H]1CC[C@H]2CC(=O)C[C@@H]12)OC
GI50 (NCI-H522): > 100 µM (inactive)
GI50 (NCI-H226): > 100 µM (inactive)
GI50 (SW-620): > 100 µM (inactive)
GI50 (MDA-MB-435): > 100 µM (inactive)
GI50 (SK-MEL-5): 85.1 µM (inactive)
GI50 (SK-MEL-28): > 100 µM (inactive)
GI50 (CAKI-1): > 100 µM (inactive)
GI50 (OVCAR-5): > 100 µM (inactive)
GI50 (SF-539): > 100 µM (inactive)
GI50 (TK-10): > 100 µM (inactive)
GI50 (ACHN): > 100 µM (inactive)
GI50 (MDA-N): > 100 µM (inactive)
GI50 (SN12C): > 100 µM (inactive)
GI50 (SR): > 100 µM (inactive)
GI50 (SNB-75): > 100 µM (inactive)
GI50 (Hs-578T): > 100 µM (inactive)
GI50 (OVCAR-4): > 100 µM (inactive)
GI50 (RPMI-8226): > 100 µM (inactive)
GI50 (Malme-3M): > 100 µM (inactive)
GI50 (HCC 2998): > 100 µM (inactive)
GI50 (NCI/ADR-RES): 99.5 µM (inactive)
GI50 (HL-60): 43.2 µM (inactive)
GI50 (LOX IMVI): > 100 µM (inactive)
GI50 (SF-268): > 100 µM (inactive)
GI50 (HOP-62): > 100 µM (inactive)
GI50 (K562): 30.8 µM (inactive)
GI50 (NCI-H23): > 100 µM (inactive)
GI50 (HT-29): > 100 µM (inactive)
GI50 (BT-549): 66.7 µM (inactive)
GI50 (HCT-15): > 100 µM
GI50 (A498): > 100 µM (inactive)
GI50 (UACC-257): 69.5 µM (inactive)
GI50 (SF-295): > 100 µM (inactive)
GI50 (A549): > 100 µM (inactive)

Cc1cc2c(cc1Cl)SSc1cc(Cl)c(C)cc1S(=O)(=O)Nc1nc(N)nn1C(O)n1nc(N)nc1NS2(=O)=O
GI50 (NCI-H522): > 10 µM (inactive)
GI50 (NCI-H226): > 10 µM (inactive)
GI50 (SW-620): > 10 µM (inactive)
GI50 (SK-MEL-5): > 10 µM (inactive)
GI50 (SK-MEL-28): > 10 µM (inactive)
GI50 (CAKI-1): > 10 µM (inactive)
GI50 (OVCAR-5): > 10 µM (inactive)
GI50 (CCRF-CEM): > 10 µM (inactive)
GI50 (SF-539): > 10 µM (inactive)
GI50 (HCT-116): > 10 µM (inactive)
GI50 (M14): > 10 µM (inactive)
GI50 (TK-10): > 10 µM (inactive)
GI50 (ACHN): > 10 µM (inactive)
GI50 (MDA-N): > 10 µM (inactive)
GI50 (IGROV-1): > 10 µM (inactive)
GI50 (UO-31): > 10 µM (inactive)
GI50 (SN12C): > 10 µM (inactive)
GI50 (RXF 393): > 10 µM (inactive)
GI50 (SR): > 10 µM (inactive)
GI50 (NCI-H460): > 10 µM (inactive)
GI50 (SNB-75): > 10 µM (inactive)
GI50 (OVCAR-3): > 10 µM (inactive)
GI50 (Hs-578T): > 10 µM (inactive)
GI50 (OVCAR-4): > 10 µM (inactive)
GI50 (KM12): > 10 µM (inactive)
GI50 (RPMI-8226): > 10 µM (inactive)
GI50 (PC-3): > 10 µM (inactive)
GI50 (Malme-3M): > 10 µM (inactive)
GI50 (DU-145): > 10 µM (inactive)
GI50 (HCC 2998): > 10 µM (inactive)
GI50 (COLO 205): > 10 µM (inactive)
GI50 (NCI/ADR-RES): > 10 µM (inactive)
GI50 (T47D): > 10 µM (inactive)
GI50 (HL-60): > 10 µM (inactive)
GI50 (LOX IMVI): > 10 µM (inactive)
GI50 (786-0): > 10 µM (inactive)
GI50 (OVCAR-8): > 10 µM (inactive)
GI50 (SF-268): > 10 µM (inactive)
GI50 (HOP-62): > 10 µM (inactive)
GI50 (MOLT-4): > 10 µM (inactive)
GI50 (MCF7): > 10 µM (inactive)
GI50 (K562): > 10 µM (inactive)
GI50 (NCI-H23): > 10 µM (inactive)
GI50 (SK-OV-3): > 10 µM (inactive)
GI50 (HT-29): > 10 µM (inactive)
GI50 (BT-549): > 10 µM (inactive)
GI50 (HCT-15): > 10 µM
GI50 (SNB-19): > 10 µM (inactive)
GI50 (U-251): > 10 µM (inactive)
GI50 (A498): > 10 µM (inactive)
GI50 (EKVX): > 10 µM (inactive)
GI50 (UACC-257): > 10 µM (inactive)
GI50 (HOP-92): > 10 µM (inactive)
GI50 (SF-295): > 10 µM (inactive)
GI50 (A549): > 10 µM (inactive)
GI50 (SK-MEL-2): > 10 µM (inactive)

— ChEMBL document CHEMBL1201862, “PubChem BioAssay data set” (2004)
